Experimental data from patent US8940742B2, “Heterocyclic compounds and uses thereof” (Infinity Pharmaceuticals, Inc., priority 2012, dated 2015).

What follows are molecules tested against T1, PI3K γ (Homo sapiens, UniProt P48736) (assay: PI3-Kinase Promega ADP-Glo Max assay). Details: 40 nM kinase, 3 mM ATP, 500 uM diC8-PtdInsP.
T1 construct: purchased Millipore
Assay type: biochemical
Description: Promega ADP-Glo Max assay kit (Cat. No. V7002) was utilized to determine IC50 values for α, β, δ and γ isoforms of human Class I PI3 kinases (Millipore). […] Reactions were incubated at room temperature for 2 hours followed by addition of 25 uL of stop solution. After a 40-minute incubation at room temperature, 50 uL of Promega detection mix was added followed by incubation for 1 hour at room temperature. Plates were then read on Envision plate reader in luminescence mode. Data was converted to % inhibition using the following equation below:
[formula] where S is the sample luminescence, Pos is a positive control without added PI3K, Neg is the negative control without added compound. Data was then plotted as % inhibition vs compound concentration.
(§1) Certain compounds provided herein were tested in PI3-Kinase Promega Assay using procedures as described above to determine IC50 values for α, β, δ and/or γ isoforms.

T1 sequence (P48736 whole entry): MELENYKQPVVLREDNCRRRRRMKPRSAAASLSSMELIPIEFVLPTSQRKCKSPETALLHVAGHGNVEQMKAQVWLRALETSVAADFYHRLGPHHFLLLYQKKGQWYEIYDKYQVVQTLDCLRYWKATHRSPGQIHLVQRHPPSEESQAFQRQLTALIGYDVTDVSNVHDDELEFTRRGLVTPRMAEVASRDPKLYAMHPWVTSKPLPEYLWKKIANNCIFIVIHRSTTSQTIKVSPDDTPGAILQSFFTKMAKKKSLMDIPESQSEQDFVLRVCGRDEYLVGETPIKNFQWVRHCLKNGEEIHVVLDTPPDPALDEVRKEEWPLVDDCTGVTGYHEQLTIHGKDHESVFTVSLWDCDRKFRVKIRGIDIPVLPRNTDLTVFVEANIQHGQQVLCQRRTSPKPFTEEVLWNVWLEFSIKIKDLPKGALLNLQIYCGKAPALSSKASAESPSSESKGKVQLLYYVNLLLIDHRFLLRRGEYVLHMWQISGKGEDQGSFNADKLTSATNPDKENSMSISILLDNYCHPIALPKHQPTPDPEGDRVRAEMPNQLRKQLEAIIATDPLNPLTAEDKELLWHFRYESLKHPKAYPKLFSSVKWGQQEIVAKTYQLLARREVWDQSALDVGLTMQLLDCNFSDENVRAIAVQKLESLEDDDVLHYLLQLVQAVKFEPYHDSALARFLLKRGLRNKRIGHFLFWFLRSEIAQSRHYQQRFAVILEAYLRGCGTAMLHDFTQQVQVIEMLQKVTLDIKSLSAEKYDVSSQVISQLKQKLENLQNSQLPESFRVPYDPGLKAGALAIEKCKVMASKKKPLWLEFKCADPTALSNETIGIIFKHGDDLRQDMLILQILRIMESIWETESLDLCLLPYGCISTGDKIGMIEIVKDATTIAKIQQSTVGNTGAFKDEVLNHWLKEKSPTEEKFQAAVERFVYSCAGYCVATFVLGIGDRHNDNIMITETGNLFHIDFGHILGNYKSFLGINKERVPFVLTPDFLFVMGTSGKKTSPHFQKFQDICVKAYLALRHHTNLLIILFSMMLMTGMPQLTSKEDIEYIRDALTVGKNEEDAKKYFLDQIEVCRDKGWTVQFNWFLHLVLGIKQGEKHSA

| IC50 | SMILES |
| --- | --- |
| > 10 µM | COc1cccc(-c2cnc(N)c(C(=O)N[C@@H](C)c3cc4cccc(Cl)c4c(=O)n3-c3ccccc3)n2)c1 [Compound 105] |
| > 10 µM | Nc1nccnc1C(=O)N1CCC[C@H]1c1cc2cccc(Cl)c2c(=O)n1-c1ccccc1 [Compound 148] |
| > 10 µM | C[C@H](NC(=O)c1c(N)nn2cccnc12)C1Cc2cccc(F)c2C(=O)N1c1ccccc1 (some centres unmarked) [Compound 304] |
| 1 to 10 µM | C[C@H](NC(=O)c1c(N)oc2cccnc12)c1cc2cccc(Cl)c2c(=O)n1-c1ccccc1 [Compound 298] |
| 1 to 10 µM | COc1cc(-c2cccc3cc([C@H](C)NC(=O)c4c(N)nn5cccnc45)n(C4CCCCC4)c(=O)c23)ccn1 [Compound 233] |
| > 10 µM | Nc1nn2cccnc2c1C(=O)NCc1cc2cccc(Cl)c2c(=O)n1-c1ccccc1 [Compound 274] |
| 1 to 10 µM | C[C@H](NC(=O)c1nc(-c2cccc(S(=O)(=O)N3CCN(C)CC3)c2)cnc1N)c1cc2cccc(Cl)c2c(=O)n1-c1ccccc1 [Compound 100] |
| 0.1 to 1 µM | COc1cccc2c(C)c([C@H](C)NC(=O)c3c(N)nn4cccnc34)n(-c3ccccc3)c(=O)c12 [Compound 261] |
| 0.1 to 1 µM | CC(=O)Nc1ncc(-c2cccc3cc([C@H](C)NC(=O)c4c(N)nn5cccnc45)n(-c4ccccc4)c(=O)c23)s1 [Compound 247] |
| 1 to 10 µM | COC(=O)c1ncsc1-c1cccc2cc([C@H](C)NC(=O)c3c(N)nn4cccnc34)n(-c3ccccc3)c(=O)c12 [Compound 248] |
| 1 to 10 µM | Nc1nn2cccnc2c1C(=O)N1CCC[C@H]1c1cc2cccc(Cl)c2c(=O)n1-c1ccccc1 [Compound 147] |
| 0.1 to 1 µM | COc1cccc2c(Br)c([C@H](C)NC(=O)c3c(N)nn4cccnc34)n(-c3ccccc3)c(=O)c12 [Compound 256] |
| > 10 µM | CC(=O)Nc1ncc(-c2cccc(NS(C)(=O)=O)c2)nc1C(=O)N[C@@H](C)c1cc2cccc(Cl)c2c(=O)n1C [Compound 185] |
| > 10 µM | C[C@H](NC(=O)c1c(N)nn2c1NCCC2)c1cc2cccc(Cl)c2c(=O)n1-c1ccccc1 [Compound 307] |
| > 10 µM | C[C@H](NC(=O)c1c(N)nn2cccnc12)c1nn2ccc(Cl)c2c(=O)n1-c1ccccc1 [Compound 286] |
| 1 to 10 µM | C[C@H](NC(=O)c1c(N)nn2cccnc12)c1cc2cccc(CNCC3CCCO3)c2c(=O)n1-c1ccccc1 (some centres unmarked) [Compound 229] |
| > 10 µM | CC(C)Nc1cccc2cc([C@H](C)NC(=O)c3c(N)nn4cccnc34)n(-c3ccccc3)c(=O)c12 [Compound 268] |

What follows are molecules tested against T2, PI3K β (Homo sapiens, UniProt P42338) (assay: PI3-Kinase Promega ADP-Glo Max assay). Details: 40 nM kinase, 3 mM ATP, 500 uM diC8-PtdInsP.
T2 construct: purchased Millipore
T2 sequence (P42338 whole entry): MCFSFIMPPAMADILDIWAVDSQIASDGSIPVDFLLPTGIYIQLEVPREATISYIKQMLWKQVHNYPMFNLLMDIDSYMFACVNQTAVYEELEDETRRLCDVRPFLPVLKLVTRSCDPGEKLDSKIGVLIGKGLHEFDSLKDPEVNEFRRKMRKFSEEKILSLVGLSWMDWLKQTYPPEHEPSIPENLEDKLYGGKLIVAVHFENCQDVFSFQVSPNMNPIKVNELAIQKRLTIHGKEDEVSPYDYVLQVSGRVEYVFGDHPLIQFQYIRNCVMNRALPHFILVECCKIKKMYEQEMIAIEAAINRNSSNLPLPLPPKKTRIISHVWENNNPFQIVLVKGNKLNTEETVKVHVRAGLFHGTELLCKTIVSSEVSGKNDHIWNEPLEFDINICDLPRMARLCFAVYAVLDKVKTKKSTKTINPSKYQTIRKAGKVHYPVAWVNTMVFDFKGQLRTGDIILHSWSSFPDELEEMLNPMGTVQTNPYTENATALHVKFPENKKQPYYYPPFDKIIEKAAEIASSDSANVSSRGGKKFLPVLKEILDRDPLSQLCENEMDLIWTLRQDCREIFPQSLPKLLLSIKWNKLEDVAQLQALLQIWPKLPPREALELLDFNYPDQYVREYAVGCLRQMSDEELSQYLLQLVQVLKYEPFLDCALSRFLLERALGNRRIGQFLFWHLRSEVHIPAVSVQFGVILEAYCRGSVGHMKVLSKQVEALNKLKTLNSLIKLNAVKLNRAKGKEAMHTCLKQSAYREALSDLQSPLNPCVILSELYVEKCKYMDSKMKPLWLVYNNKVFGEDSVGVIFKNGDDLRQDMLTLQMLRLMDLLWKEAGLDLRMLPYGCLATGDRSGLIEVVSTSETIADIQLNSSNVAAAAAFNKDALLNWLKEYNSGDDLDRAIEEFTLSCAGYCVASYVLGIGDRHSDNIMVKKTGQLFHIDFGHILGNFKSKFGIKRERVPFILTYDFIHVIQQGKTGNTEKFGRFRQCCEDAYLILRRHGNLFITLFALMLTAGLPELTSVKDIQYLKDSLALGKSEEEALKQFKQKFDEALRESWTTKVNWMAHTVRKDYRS
T2 sequence (P27986 whole entry partner): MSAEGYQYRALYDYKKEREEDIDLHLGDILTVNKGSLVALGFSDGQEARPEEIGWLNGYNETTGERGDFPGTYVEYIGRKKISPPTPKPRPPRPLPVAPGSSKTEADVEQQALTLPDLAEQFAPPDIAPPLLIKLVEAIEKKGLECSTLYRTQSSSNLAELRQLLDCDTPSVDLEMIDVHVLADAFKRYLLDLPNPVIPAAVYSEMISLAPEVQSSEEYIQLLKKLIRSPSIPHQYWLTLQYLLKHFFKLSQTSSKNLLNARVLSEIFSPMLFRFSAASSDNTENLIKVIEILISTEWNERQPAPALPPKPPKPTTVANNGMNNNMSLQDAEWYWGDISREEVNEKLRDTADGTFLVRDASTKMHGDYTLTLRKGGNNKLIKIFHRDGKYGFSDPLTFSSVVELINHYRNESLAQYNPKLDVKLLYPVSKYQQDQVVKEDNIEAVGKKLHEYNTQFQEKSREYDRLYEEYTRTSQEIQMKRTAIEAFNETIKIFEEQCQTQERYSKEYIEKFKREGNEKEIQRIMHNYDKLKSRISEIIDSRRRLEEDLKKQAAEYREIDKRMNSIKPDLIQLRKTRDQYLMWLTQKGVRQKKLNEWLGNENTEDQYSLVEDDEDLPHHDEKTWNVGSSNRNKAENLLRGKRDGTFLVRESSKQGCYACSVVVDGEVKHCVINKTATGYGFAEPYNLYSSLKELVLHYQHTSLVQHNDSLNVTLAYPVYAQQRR
Assay type: biochemical
Description: (§2) Promega ADP-Glo Max assay kit (Cat. No. V7002) was utilized to determine IC50 values for α, β, δ and γ isoforms of human Class I PI3 kinases (Millipore). Samples of kinase (20 nM α or δ, 40 nM β or γ isoform) were incubated with compound for 15 minutes at room temperature in reaction buffer (15 mM HEPES pH 7.4, 20 mM NaCl, 1 mM EGTA, 0.02% Tween 20, 10 mM MgCl2, 0.2 mg/mL bovine-γ-globulins) followed by addition of ATP/diC8-PtdInsP mixture to give final concentrations of 3 mM ATP and 500 uM diC8-PtdInsP. Reactions were incubated at room temperature for 2 hours followed by addition of 25 uL of stop solution. After a 40-minute incubation at room temperature, 50 uL of Promega detection mix was added followed by incubation for 1 hour at room temperature. Plates were then read on Envision plate reader in luminescence mode. Data was converted to % inhibition using the following equation below:
(§3) [formula] where S is the sample luminescence, Pos is a positive control without added PI3K, Neg is the negative control without added compound. Data was then plotted as % inhibition vs compound concentration. Data fit to 4 parameter logistic equation to determine IC50 values: […]
as §1

| IC50 | SMILES |
| --- | --- |
| > 10 µM | COc1cccc(-c2cnc(N)c(C(=O)N[C@@H](C)c3cc4cccc(Cl)c4c(=O)n3-c3ccccc3)n2)c1 [Compound 105] |
| > 10 µM | Nc1nccnc1C(=O)N1CCC[C@H]1c1cc2cccc(Cl)c2c(=O)n1-c1ccccc1 [Compound 148] |
| > 10 µM | C[C@H](NC(=O)c1c(N)nn2cccnc12)C1Cc2cccc(F)c2C(=O)N1c1ccccc1 (some centres unmarked) [Compound 304] |
| 1 to 10 µM | C[C@H](NC(=O)c1c(N)oc2cccnc12)c1cc2cccc(Cl)c2c(=O)n1-c1ccccc1 [Compound 298] |
| > 10 µM | COc1cc(-c2cccc3cc([C@H](C)NC(=O)c4c(N)nn5cccnc45)n(C4CCCCC4)c(=O)c23)ccn1 [Compound 233] |
| > 10 µM | Nc1nn2cccnc2c1C(=O)NCc1cc2cccc(Cl)c2c(=O)n1-c1ccccc1 [Compound 274] |
| 1 to 10 µM | C[C@H](NC(=O)c1nc(-c2cccc(S(=O)(=O)N3CCN(C)CC3)c2)cnc1N)c1cc2cccc(Cl)c2c(=O)n1-c1ccccc1 [Compound 100] |
| > 10 µM | COc1cccc2c(C)c([C@H](C)NC(=O)c3c(N)nn4cccnc34)n(-c3ccccc3)c(=O)c12 [Compound 261] |
| > 10 µM | CC(=O)Nc1ncc(-c2cccc3cc([C@H](C)NC(=O)c4c(N)nn5cccnc45)n(-c4ccccc4)c(=O)c23)s1 [Compound 247] |
| > 10 µM | COC(=O)c1ncsc1-c1cccc2cc([C@H](C)NC(=O)c3c(N)nn4cccnc34)n(-c3ccccc3)c(=O)c12 [Compound 248] |
| 1 to 10 µM | Nc1nn2cccnc2c1C(=O)N1CCC[C@H]1c1cc2cccc(Cl)c2c(=O)n1-c1ccccc1 [Compound 147] |
| > 10 µM | COc1cccc2c(Br)c([C@H](C)NC(=O)c3c(N)nn4cccnc34)n(-c3ccccc3)c(=O)c12 [Compound 256] |
| > 10 µM | CC(=O)Nc1ncc(-c2cccc(NS(C)(=O)=O)c2)nc1C(=O)N[C@@H](C)c1cc2cccc(Cl)c2c(=O)n1C [Compound 185] |
| > 10 µM | C[C@H](NC(=O)c1c(N)nn2c1NCCC2)c1cc2cccc(Cl)c2c(=O)n1-c1ccccc1 [Compound 307] |
| > 10 µM | C[C@H](NC(=O)c1c(N)nn2cccnc12)c1nn2ccc(Cl)c2c(=O)n1-c1ccccc1 [Compound 286] |
| > 10 µM | C[C@H](NC(=O)c1c(N)nn2cccnc12)c1cc2cccc(CNCC3CCCO3)c2c(=O)n1-c1ccccc1 (some centres unmarked) [Compound 229] |
| > 10 µM | CC(C)Nc1cccc2cc([C@H](C)NC(=O)c3c(N)nn4cccnc34)n(-c3ccccc3)c(=O)c12 [Compound 268] |

What follows are molecules tested against T3, PI3K δ (Homo sapiens, UniProt O00329) (assay: PI3-Kinase Promega ADP-Glo Max assay). Details: 20 nM kinase, 3 mM ATP, 500 uM diC8-PtdInsP.
T3 construct: purchased Millipore
T3 sequence (O00329 whole entry): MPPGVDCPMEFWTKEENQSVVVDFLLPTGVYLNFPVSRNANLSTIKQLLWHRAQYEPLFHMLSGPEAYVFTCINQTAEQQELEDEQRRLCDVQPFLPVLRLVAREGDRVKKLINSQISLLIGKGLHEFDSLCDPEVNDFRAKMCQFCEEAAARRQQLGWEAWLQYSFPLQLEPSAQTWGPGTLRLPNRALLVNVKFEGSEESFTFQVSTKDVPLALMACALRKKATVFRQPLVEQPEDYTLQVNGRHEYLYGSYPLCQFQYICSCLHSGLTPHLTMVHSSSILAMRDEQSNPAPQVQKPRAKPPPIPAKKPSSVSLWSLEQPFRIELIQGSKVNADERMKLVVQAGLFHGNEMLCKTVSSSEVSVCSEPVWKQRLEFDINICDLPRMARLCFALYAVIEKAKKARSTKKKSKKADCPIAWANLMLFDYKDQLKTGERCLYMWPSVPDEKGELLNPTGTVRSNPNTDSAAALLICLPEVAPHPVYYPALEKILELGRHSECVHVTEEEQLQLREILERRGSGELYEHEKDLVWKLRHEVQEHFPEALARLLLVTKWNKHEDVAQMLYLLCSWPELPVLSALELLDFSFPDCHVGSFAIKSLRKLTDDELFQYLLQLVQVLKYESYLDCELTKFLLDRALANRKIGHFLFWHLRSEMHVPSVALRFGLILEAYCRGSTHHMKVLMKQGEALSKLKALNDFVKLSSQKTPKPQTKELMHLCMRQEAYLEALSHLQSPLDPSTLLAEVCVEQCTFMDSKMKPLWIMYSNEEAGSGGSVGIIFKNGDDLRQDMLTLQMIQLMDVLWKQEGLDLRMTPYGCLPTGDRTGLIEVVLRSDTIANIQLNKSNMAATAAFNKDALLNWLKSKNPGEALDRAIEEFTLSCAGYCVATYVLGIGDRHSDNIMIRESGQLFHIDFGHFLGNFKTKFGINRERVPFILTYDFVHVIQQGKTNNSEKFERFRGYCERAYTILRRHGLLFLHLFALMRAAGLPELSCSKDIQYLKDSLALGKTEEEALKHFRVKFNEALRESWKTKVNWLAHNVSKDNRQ
T3 sequence (P27986 whole entry partner): as the sequence (P27986 whole entry partner) above
Assay type: biochemical
Description: as §2, §3, §1

| IC50 | SMILES |
| --- | --- |
| > 10 µM | COc1cccc(-c2cnc(N)c(C(=O)N[C@@H](C)c3cc4cccc(Cl)c4c(=O)n3-c3ccccc3)n2)c1 [Compound 105] |
| 1 to 10 µM | Nc1nccnc1C(=O)N1CCC[C@H]1c1cc2cccc(Cl)c2c(=O)n1-c1ccccc1 [Compound 148] |
| > 10 µM | C[C@H](NC(=O)c1c(N)nn2cccnc12)C1Cc2cccc(F)c2C(=O)N1c1ccccc1 (some centres unmarked) [Compound 304] |
| 1 to 10 µM | C[C@H](NC(=O)c1c(N)oc2cccnc12)c1cc2cccc(Cl)c2c(=O)n1-c1ccccc1 [Compound 298] |
| > 10 µM | COc1cc(-c2cccc3cc([C@H](C)NC(=O)c4c(N)nn5cccnc45)n(C4CCCCC4)c(=O)c23)ccn1 [Compound 233] |
| > 10 µM | Nc1nn2cccnc2c1C(=O)NCc1cc2cccc(Cl)c2c(=O)n1-c1ccccc1 [Compound 274] |
| 1 to 10 µM | C[C@H](NC(=O)c1nc(-c2cccc(S(=O)(=O)N3CCN(C)CC3)c2)cnc1N)c1cc2cccc(Cl)c2c(=O)n1-c1ccccc1 [Compound 100] |
| 1 to 10 µM | COc1cccc2c(C)c([C@H](C)NC(=O)c3c(N)nn4cccnc34)n(-c3ccccc3)c(=O)c12 [Compound 261] |
| 1 to 10 µM | CC(=O)Nc1ncc(-c2cccc3cc([C@H](C)NC(=O)c4c(N)nn5cccnc45)n(-c4ccccc4)c(=O)c23)s1 [Compound 247] |
| > 10 µM | COC(=O)c1ncsc1-c1cccc2cc([C@H](C)NC(=O)c3c(N)nn4cccnc34)n(-c3ccccc3)c(=O)c12 [Compound 248] |
| > 10 µM | Nc1nn2cccnc2c1C(=O)N1CCC[C@H]1c1cc2cccc(Cl)c2c(=O)n1-c1ccccc1 [Compound 147] |
| 1 to 10 µM | COc1cccc2c(Br)c([C@H](C)NC(=O)c3c(N)nn4cccnc34)n(-c3ccccc3)c(=O)c12 [Compound 256] |
| > 10 µM | CC(=O)Nc1ncc(-c2cccc(NS(C)(=O)=O)c2)nc1C(=O)N[C@@H](C)c1cc2cccc(Cl)c2c(=O)n1C [Compound 185] |
| > 10 µM | C[C@H](NC(=O)c1c(N)nn2c1NCCC2)c1cc2cccc(Cl)c2c(=O)n1-c1ccccc1 [Compound 307] |
| > 10 µM | C[C@H](NC(=O)c1c(N)nn2cccnc12)c1nn2ccc(Cl)c2c(=O)n1-c1ccccc1 [Compound 286] |
| 1 to 10 µM | C[C@H](NC(=O)c1c(N)nn2cccnc12)c1cc2cccc(CNCC3CCCO3)c2c(=O)n1-c1ccccc1 (some centres unmarked) [Compound 229] |
| > 10 µM | CC(C)Nc1cccc2cc([C@H](C)NC(=O)c3c(N)nn4cccnc34)n(-c3ccccc3)c(=O)c12 [Compound 268] |

Each molecule was assayed against T4, PI3K α (Homo sapiens, UniProt P42336) (assay: PI3-Kinase Promega ADP-Glo Max assay). Details: 20 nM kinase, 3 mM ATP, 500 uM diC8-PtdInsP.
T4 construct: purchased Millipore
T4 sequence (P42336 whole entry): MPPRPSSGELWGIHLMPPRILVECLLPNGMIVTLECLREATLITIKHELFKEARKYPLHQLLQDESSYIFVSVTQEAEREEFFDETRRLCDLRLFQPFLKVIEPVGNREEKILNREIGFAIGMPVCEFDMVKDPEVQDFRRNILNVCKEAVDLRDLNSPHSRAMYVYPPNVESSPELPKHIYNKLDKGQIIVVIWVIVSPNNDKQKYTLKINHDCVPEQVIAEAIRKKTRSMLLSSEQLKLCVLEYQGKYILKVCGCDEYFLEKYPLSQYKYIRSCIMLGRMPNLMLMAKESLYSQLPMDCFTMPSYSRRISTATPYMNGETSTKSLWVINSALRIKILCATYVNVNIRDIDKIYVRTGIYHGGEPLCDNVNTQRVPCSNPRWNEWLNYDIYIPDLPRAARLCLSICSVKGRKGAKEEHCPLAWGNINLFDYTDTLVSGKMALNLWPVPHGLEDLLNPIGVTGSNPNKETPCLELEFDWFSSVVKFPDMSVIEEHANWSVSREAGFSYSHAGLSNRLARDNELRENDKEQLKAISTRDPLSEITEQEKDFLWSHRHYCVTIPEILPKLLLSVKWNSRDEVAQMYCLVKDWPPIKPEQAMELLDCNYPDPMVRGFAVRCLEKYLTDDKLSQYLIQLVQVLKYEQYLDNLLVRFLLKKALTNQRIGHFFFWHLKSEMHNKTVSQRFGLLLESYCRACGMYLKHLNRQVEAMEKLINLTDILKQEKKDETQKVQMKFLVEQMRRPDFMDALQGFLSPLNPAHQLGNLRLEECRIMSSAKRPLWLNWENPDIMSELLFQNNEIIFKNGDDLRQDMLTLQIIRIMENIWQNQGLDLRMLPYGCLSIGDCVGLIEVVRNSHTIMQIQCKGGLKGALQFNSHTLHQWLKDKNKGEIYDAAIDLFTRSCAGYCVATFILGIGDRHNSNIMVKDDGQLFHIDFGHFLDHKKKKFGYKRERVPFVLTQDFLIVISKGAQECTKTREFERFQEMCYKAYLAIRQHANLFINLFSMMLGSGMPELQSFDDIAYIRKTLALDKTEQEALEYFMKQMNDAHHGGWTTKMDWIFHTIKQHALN
T4 sequence (P27986 whole entry partner): as the sequence (P27986 whole entry partner) above
Assay type: biochemical
Description: as §2, §3, §1

| IC50 | SMILES |
| --- | --- |
| > 10 µM | COc1cccc(-c2cnc(N)c(C(=O)N[C@@H](C)c3cc4cccc(Cl)c4c(=O)n3-c3ccccc3)n2)c1 [Compound 105] |
| > 10 µM | Nc1nccnc1C(=O)N1CCC[C@H]1c1cc2cccc(Cl)c2c(=O)n1-c1ccccc1 [Compound 148] |
| > 10 µM | C[C@H](NC(=O)c1c(N)nn2cccnc12)C1Cc2cccc(F)c2C(=O)N1c1ccccc1 (some centres unmarked) [Compound 304] |
| > 10 µM | C[C@H](NC(=O)c1c(N)oc2cccnc12)c1cc2cccc(Cl)c2c(=O)n1-c1ccccc1 [Compound 298] |
| > 10 µM | COc1cc(-c2cccc3cc([C@H](C)NC(=O)c4c(N)nn5cccnc45)n(C4CCCCC4)c(=O)c23)ccn1 [Compound 233] |
| > 10 µM | Nc1nn2cccnc2c1C(=O)NCc1cc2cccc(Cl)c2c(=O)n1-c1ccccc1 [Compound 274] |
| 1 to 10 µM | C[C@H](NC(=O)c1nc(-c2cccc(S(=O)(=O)N3CCN(C)CC3)c2)cnc1N)c1cc2cccc(Cl)c2c(=O)n1-c1ccccc1 [Compound 100] |
| > 10 µM | COc1cccc2c(C)c([C@H](C)NC(=O)c3c(N)nn4cccnc34)n(-c3ccccc3)c(=O)c12 [Compound 261] |
| 1 to 10 µM | CC(=O)Nc1ncc(-c2cccc3cc([C@H](C)NC(=O)c4c(N)nn5cccnc45)n(-c4ccccc4)c(=O)c23)s1 [Compound 247] |
| > 10 µM | COC(=O)c1ncsc1-c1cccc2cc([C@H](C)NC(=O)c3c(N)nn4cccnc34)n(-c3ccccc3)c(=O)c12 [Compound 248] |
| > 10 µM | Nc1nn2cccnc2c1C(=O)N1CCC[C@H]1c1cc2cccc(Cl)c2c(=O)n1-c1ccccc1 [Compound 147] |
| > 10 µM | COc1cccc2c(Br)c([C@H](C)NC(=O)c3c(N)nn4cccnc34)n(-c3ccccc3)c(=O)c12 [Compound 256] |
| > 10 µM | CC(=O)Nc1ncc(-c2cccc(NS(C)(=O)=O)c2)nc1C(=O)N[C@@H](C)c1cc2cccc(Cl)c2c(=O)n1C [Compound 185] |
| > 10 µM | C[C@H](NC(=O)c1c(N)nn2c1NCCC2)c1cc2cccc(Cl)c2c(=O)n1-c1ccccc1 [Compound 307] |
| > 10 µM | C[C@H](NC(=O)c1c(N)nn2cccnc12)c1nn2ccc(Cl)c2c(=O)n1-c1ccccc1 [Compound 286] |
| > 10 µM | C[C@H](NC(=O)c1c(N)nn2cccnc12)c1cc2cccc(CNCC3CCCO3)c2c(=O)n1-c1ccccc1 (some centres unmarked) [Compound 229] |
| > 10 µM | CC(C)Nc1cccc2cc([C@H](C)NC(=O)c3c(N)nn4cccnc34)n(-c3ccccc3)c(=O)c12 [Compound 268] |
